In patent US12540128B2, “Substituted pyridazinones as herbicides” (SYNGENTA CROP PROTECTION AG, priority 2019, dated 2026):

Legend:
Format in all cases: in vivo
Conditions in all cases: 250 g/ha, after 13 days
[1] = system: Abutilon theophrasti (ABUTH); test: B2 Post-Emergence Efficacy Test 2
Description: (§1) Seeds of a variety of test species are sown in standard soil in pots:— Amaranthus retoflexus (AMARE), Setaria faberi (SETFA), Echinochloa crus-galli (ECHCG), Ipomoea hederacea (IPOHE), Zea Mays (ZEAMX), Abutilon theophrasti (ABUTH). After 8 days cultivation (post-emergence) under controlled conditions in a glasshouse (at 24/16° C., day/night; 14 hours light; 65% humidity), the plants are sprayed with an aqueous spray solution derived from the formulation of the technical active ingredient in acetone/water (50:50) solution containing 0.5% Tween 20 (polyoxyethylene sorbitan monolaurate, CAS RN 9005-64-5). Compounds are applied at 250 g/ha. The test plants are then grown in a glasshouse under controlled conditions in a glasshouse (at 24/16° C., day/night; 14 hours light; 65% humidity) and watered twice daily. After 13 days, the test is evaluated for the percentage damage caused to the plant. The biological activities are assessed on a five point scale (5=80-100%; 4=60-79%; 3=40-59%; 2=20-39%; 1=0-19%). A blank value in the table is indicative that the compound was not tested on that species.

[2] = system: Amaranthus retoflexus (AMARE); test: B2 Post-Emergence Efficacy Test 2
Description: as §1

[3] = system: Echinochloa crus-galli (ECHCG); test: B2 Post-Emergence Efficacy Test 2
Description: as §1

[4] = system: Ipomoea hederacea (IPOHE); test: B2 Post-Emergence Efficacy Test 2
Description: as §1

Setaria faberi (SETFA) [5] = test: B2 Post-Emergence Efficacy Test 2
Description: as §1

Zea Mays (ZEAMX) [6] = test: B2 Post-Emergence Efficacy Test 2
Description: as §1

[7] = system: Abutilon theophrasti (ABUTH); test: B4 Pre-Emergence Efficacy Test 2
Description: (§2) Seeds of a variety of test species were sown in standard soil in pots: Amaranthus retoflexus (AMARE), Setaria faberi (SETFA), Echinochloa crus-galli (ECHCG), Ipomoea hederacea (IPOHE), Zea Mays (ZEAMX), Abutilon theophrasti (ABUTH). After cultivation for one day (pre-emergence) under controlled conditions in a glasshouse (at 24/16° C., day/night; 14 hours light; 65% humidity), the plants were sprayed with an aqueous spray solution derived from the formulation of the technical active ingredient in acetone/water (50:50) solution containing 0.5% Tween 20 (polyoxyethelyene sorbitan monolaurate, CAS RN 9005-64-5). Compounds are applied at 250 g/ha. The test plants were then grown in a glasshouse under controlled conditions (at 24/16° C., day/night; 14 hours light; 65% humidity) and watered twice daily. After 13 days, the test is evaluated for the percentage damage caused to the plant. The biological activities are assessed on a five point scale (5=80-100%; 4=60-79%; 3=40-59%; 2=20-39%; 1=0-19%). A blank value in the table is indicative that the compound was not tested on that species.

[8] = system: Amaranthus retoflexus (AMARE); test: B4 Pre-Emergence Efficacy Test 2
Description: as §2

[9] = system: Echinochloa crus-galli (ECHCG); test: B4 Pre-Emergence Efficacy Test 2
Description: as §2

[10] = system: Ipomoea hederacea (IPOHE); test: B4 Pre-Emergence Efficacy Test 2
Description: as §2

Setaria faberi (SETFA) [11] = test: B4 Pre-Emergence Efficacy Test 2
Description: as §2

Zea Mays (ZEAMX) [12] = test: B4 Pre-Emergence Efficacy Test 2
Description: as §2

Row | SMILES | percentage damage caused to the plant, five point scale, ABUTH [1] | percentage damage caused to the plant, five point scale, AMARE [2] | percentage damage caused to the plant, five point scale, ECHCG [3] | percentage damage caused to the plant, five point scale, IPOHE [4] | percentage damage caused to the plant, five point scale, SETFA (Setaria faberi (SETFA) [5]) | percentage damage caused to the plant, five point scale, ZEAMX (Zea Mays (ZEAMX) [6]) | percentage damage caused to the plant, five point scale, ABUTH [7] | percentage damage caused to the plant, five point scale, AMARE [8] | percentage damage caused to the plant, five point scale, ECHCG [9] | percentage damage caused to the plant, five point scale, IPOHE [10] | percentage damage caused to the plant, five point scale, SETFA (Setaria faberi (SETFA) [11]) | percentage damage caused to the plant, five point scale, ZEAMX (Zea Mays (ZEAMX) [12])
1 | Cc1nn(C)c(=O)c(-c2c(F)ccc(Cl)c2CCc2ccc3ncsc3c2)c1O [Compound 1.349] | 4 (4=60-79%) | 4 (4=60-79%) | 4 (4=60-79%) | 4 (4=60-79%) | 4 (4=60-79%) | 2 (2=20-39%) | 4 (4=60-79%) | 5 (5=80-100%) | 5 (5=80-100%) | 5 (5=80-100%) | 5 (5=80-100%) | 4 (4=60-79%)
2 | Cc1nn(C)c(=O)c(-c2c(F)ccc(Cl)c2CCc2ccc3scnc3c2)c1O [Compound 1.350, 4-[2-[2-(1,3-benzothiazol-5-yl)ethyl]-3-chloro-6-fluoro-phenyl]-5-hydroxy-2,6-dimethyl-pyridazin-3-one] | 5 (5=80-100%) | 4 (4=60-79%) | 4 (4=60-79%) | 3 (3=40-59%) | 4 (4=60-79%) | 3 (3=40-59%) | 5 (5=80-100%) | 5 (5=80-100%) | 5 (5=80-100%) | 5 (5=80-100%) | 5 (5=80-100%) | 4 (4=60-79%)
3 | Cc1nn(C)c(=O)c(-c2c(F)ccc(Cl)c2CCc2ccc3c(C)noc3c2)c1O [Compound 1.351] | 5 (5=80-100%) | 5 (5=80-100%) | 4 (4=60-79%) | 5 (5=80-100%) | 4 (4=60-79%) | 5 (5=80-100%) | 5 (5=80-100%) | 5 (5=80-100%) | 5 (5=80-100%) | 5 (5=80-100%) | 5 (5=80-100%) | 5 (5=80-100%)
4 | Cc1nn(C)c(=O)c(-c2c(F)ccc(Cl)c2CCc2ccc3oc(=O)[nH]c3c2)c1O [Compound 1.352] | 4 (4=60-79%) | 4 (4=60-79%) | 4 (4=60-79%) | 3 (3=40-59%) | 4 (4=60-79%) | 3 (3=40-59%) | 4 (4=60-79%) | 5 (5=80-100%) | 3 (3=40-59%) | 3 (3=40-59%) | 5 (5=80-100%) | 4 (4=60-79%)
5 | Cc1nn(C)c(=O)c(-c2c(F)ccc(Cl)c2CCc2ccc3cnn(C)c3c2)c1O [Compound 1.353] | 4 (4=60-79%) | 4 (4=60-79%) | 4 (4=60-79%) | 3 (3=40-59%) | 4 (4=60-79%) | 3 (3=40-59%) | 4 (4=60-79%) | 5 (5=80-100%) | 5 (5=80-100%) | 5 (5=80-100%) | 5 (5=80-100%) | 4 (4=60-79%)
6 | Cc1nn(C)c(=O)c(-c2c(F)ccc(Cl)c2CCc2ccc3c(cnn3C)c2)c1O [Compound 1.354] | 4 (4=60-79%) | 4 (4=60-79%) | 5 (5=80-100%) | 4 (4=60-79%) | 4 (4=60-79%) | 4 (4=60-79%) | 4 (4=60-79%) | 4 (4=60-79%) | 5 (5=80-100%) | 5 (5=80-100%) | 5 (5=80-100%) | 4 (4=60-79%)
7 | Cc1nn(C)c(=O)c(-c2c(F)ccc(Cl)c2CCc2ccc3ccn(C)c3c2)c1O [Compound 1.355] | 3 (3=40-59%) | 4 (4=60-79%) | 1 (1=0-19%) | 4 (4=60-79%) | 2 (2=20-39%) | 1 (1=0-19%) | 0 | 3 (3=40-59%) | 0 | 2 (2=20-39%) | 1 (1=0-19%) | 1 (1=0-19%)
8 | Cc1nn(C)c(=O)c(-c2c(F)ccc(Cl)c2CCc2ccc3c(ccn3C)c2)c1O [Compound 1.356] | 4 (4=60-79%) | 5 (5=80-100%) | 4 (4=60-79%) | 4 (4=60-79%) | 5 (5=80-100%) | 2 (2=20-39%) | 1 (1=0-19%) | 3 (3=40-59%) | 1 (1=0-19%) | 2 (2=20-39%) | 1 (1=0-19%) | 0
9 | Cc1nn(C)c(=O)c(-c2c(F)ccc(Cl)c2CCc2nc3ccccc3o2)c1O [Compound 1.359] | 4 (4=60-79%) | 3 (3=40-59%) | 3 (3=40-59%) | 2 (2=20-39%) | 3 (3=40-59%) | 1 (1=0-19%) | 5 (5=80-100%) | 5 (5=80-100%) | 5 (5=80-100%) | 4 (4=60-79%) | 5 (5=80-100%) | 3 (3=40-59%)
